`Cn1cc(C(=O)OCC23CCCN(CC2)C3)c2ccccc21` (configuration not stated) displayed a melting point of 94.5 to 96.5 °C.
Take `CCOc1ccc(C2=NN(CCCCOc3ccc(C4=NNC(=O)CC4C)cc3)C(=O)C3CC=CCC23)cc1OCC` (configuration not stated): the melting point fell in the range of 73 to 78 °C.
With `C1=c2ccccc2=C2N=c3ccc4ccccc4c3=C2C1` the figure was 238 °C; with `CN(c1cccc2cc(C3=NCC(C)(CN4CCNCC4)S3)[nH]c12)S(=O)(=O)c1cccs1` (configuration not stated), 178 to 180 °C.
`COc1ccc(C23CC(c4ccccc4)C(=O)N2CCN3)cc1` (configuration not stated) came in with a melting point of 150 °C.
Turning to `C=CS(=O)(=O)CC(=O)N1CCN(C(=O)CS(=O)(=O)C=C)CC1`, the melting point was 215 °C.
Compound `CN(CCOc1ccc(CCOCCc2ncn[nH]2)cc1)c1nc2ccccc2o1` gave a melting point of 127 to 129 °C.
Regarding `COC(=O)c1ccc2[nH]cc(Cc3ccc(OCc4ccc5ccccc5n4)cc3)c2c1`, the melting point was 179 to 180 °C.
In the case of `Cn1nnnc1CC(c1ccccc1)c1ccccc1`, the melting point lay in the range of 147 to 148 °C.
Regarding `Cc1cc(-c2csc(-c3ccc(C(=O)O)cc3)n2)c(C)o1`, the melting point is 264 to 265 °C.
`CSC(=C[N+](=O)[O-])N(C)C` displayed a melting point of 60 °C.
Compound `CCc1nc2c(cnn2CC)c(NC2CCOCC2)c1CNC(=O)c1cccc(C(=O)NCc2ccc(OC)c(-c3cccc(CN4CCN(C)CC4)c3)c2)c1` showed a melting point of 117 to 119 °C.
Under `CC(=O)c1c(C)nc(C)n1-c1cc(C)c2[nH]c(=O)ccc2c1` stands 240 to 242 °C; under `CCCCCCCCCCCCCCCCCCOc1cc(C(=O)OC)cc(N(CC(=O)OCc2ccccc2)CC(=O)OCc2ccccc2)c1`, 62 to 63 °C; under `CC1(C)CCCC(N=[N+]=[N-])C(=O)N1` (configuration not stated), 98 to 100 °C.
Under `O=C(Nc1ccc(F)c(C(F)(F)F)c1)N1COc2cc(Oc3cc(Cl)ncn3)ccc21` stands 188 to 191 °C.
The compound `CCc1nc(/C=C/c2cn(-c3ccccc3)nc2OCc2ccc(OCc3nc(-c4cccc(NS(C)(=O)=O)c4)oc3C)c(OC)c2)cs1` came in with a melting point of 113 to 115 °C.
In turn, `Cc1cccc(S(=O)(=O)Nc2cccnc2Nc2ccccc2)c1` yielded a melting point of 161 to 162 °C.
`CCC(CC)Nc1c([N+](=O)[O-])cc(CC(=O)O)c(C(C)C)c1[N+](=O)[O-]` returned a melting point of 116 to 118 °C.
The compound `c1cc(CN2CCCCC2)cc(OCCCNc2nnc3ccccn23)c1` registered a melting point of 150 to 151 °C.
`Cc1ccc2c(c1)CC(=O)c1cc(F)ccc1S2` showed a melting point of 103 to 104 °C.
Consider `N#CCCN1CCc2c3n(c4ccccc24)C(=O)CCC31` (configuration not stated), for which the melting point lay within 156 to 157 °C.
`CCOC(=O)CCc1cn(Cc2ccc(O)cc2)nc1O`: the melting point is 143 to 144 °C.
For `C#Cc1ccc(NC(=O)CCCC(=O)O)cc1`, the melting point was in the range of 135 to 140 °C.
As for `CC1=NC(c2ccccc2)c2c(cc[nH]c2=O)N1` (configuration not stated), the melting point lay in the range of 263 to 264 °C.
Under `Cc1cccc(NC(=O)NCC(=O)N(CC(=O)OC(C)(C)C)c2ccccc2C(=O)N2CCCC(C)(C)C2)c1` stands 207 °C.
`COc1cc(-c2nc(=O)c3ccccc3s2)ccn1` yielded a melting point of 149 to 150 °C.
With `CCCCCc1ncc(C(=O)OCC)c(NCc2ccc(-c3ccccc3-c3nnnn3C(c3ccccc3)(c3ccccc3)c3ccccc3)cc2)n1`, the melting point was 107 to 108 °C.
The compound `CCn1ncc2c1ncc1c(=O)[nH]c3ncnn3c12` showed a melting point of 175 to 177 °C.
Turning to `CC(C)(C)c1ccc2oc(C(O)COc3ccc(C(=O)O)cc3)cc2c1` (configuration not stated), the melting point was in the range of 175 to 177 °C.
In the case of `CCC1(CCCCCl)C(=O)Nc2ccc(Cl)cc21` (configuration not stated), the melting point is 116 to 117 °C.
On to `CCCCCCCCCCCCCCOc1ccc2c(C)cc(=O)oc2c1`, for which the melting point lay in the range of 61 to 62 °C.
Regarding `CCOC(=O)C=Cc1cc([N+](=O)[O-])c(F)cc1Cl`, the melting point fell in the range of 86 to 88 °C.
Take `O=C(c1ccccc1Cl)c1ccccc1C#CCN1C(=O)c2ccccc2C1=O`: the melting point lay within 149 to 150 °C.
`O=C(O)c1ccc2c(c1)nc(-c1ccc(OC(c3cccc(F)c3)c3cccc(F)c3)cc1F)n2C1CCCCC1` showed a melting point of 242 to 243 °C.
`CC1(C)COC(c2c(F)cccc2C2(C)CCCC2)=N1` came in with a melting point of 116 to 117 °C.
On to `Cc1[nH]c(=S)[nH]c1-c1cc(C(C)(C)C)c(O)c(C(C)(C)C)c1`, for which the melting point was 288 to 290 °C.
In turn, `CNc1cccc(NC(=O)CO)c1C#N` gave a melting point of 160 to 162 °C.
For the compound `CN(C)C1=NS(=O)(=O)c2ccccc21`, the melting point lay within 323 to 324 °C.
The compound `CCc1ncnc2ccc(I)cc12` gave a melting point of 110 to 113 °C.
In the case of `CS(=O)(=O)c1ccc(-c2ccc(Cl)nc2-c2ccc(F)cc2)cc1`, the melting point was determined as 192 °C.
`CCC1(C(F)(F)F)C(=O)NC(=O)NC1=O` showed a melting point of 208 to 209 °C.
The compound `C=CCN1CCC23CC(=O)CCC2(O)C1Cc1cccc(OC)c13` (configuration not stated) showed a melting point of 166 to 167 °C.
In turn, `CCn1c(=O)c2[nH]c(/C=C/c3ccc(OC)c(OC)c3Cl)nc2n(CC)c1=O` registered a melting point of 278 to 281 °C.
For the compound `CCC1c2cccn2-c2cccc(C)c2N1S(=O)(=O)c1ccc(O)cc1` (configuration not stated), the melting point lay within 165 to 167 °C.
The compound `C=Cc1c(N)nc(-c2ccc(Cl)c(OC)c2F)nc1C(=O)O` yielded a melting point of 167 to 168 °C.
`O=S(=O)(NC1CCC(O)CC1)c1cccc2ccccc12` (configuration not stated): the melting point turned out to be 174 °C.
With `CCc1cn(C2CC(O)C(CNC(=O)C(C)S(=O)(=O)c3ccc(Cl)cc3Cl)O2)c(=O)[nH]c1=O` (mixture of isomers) the figure was 183 to 184 °C.
In turn, `O=C(O)CCc1ccc(CNC(=O)OCC2c3ccccc3-c3ccccc32)cc1` gave a melting point of 164 to 166 °C.
For `CC1(CNC(=O)CC2CN=C(c3cc4cc(Oc5ccc(S(C)(=O)=O)nc5)cc(OC5CCOCC5)c4[nH]3)S2)COC1` (configuration not stated), the melting point is 189 to 190 °C.
Under `Fc1ccc(F)c(COc2cccnc2NC(=S)Nc2ccc(Cl)cc2)c1F` stands 174 to 176 °C; under `CC(C)(C)OC(=O)N1CCN(C(=O)C2C3CCC(O3)C2C(=O)O)CC1` (configuration not stated), 206 to 208 °C.
For the compound `C/C=C/c1ccc2c(NCc3ccc(NC(=O)C4CCN(Cc5ccccc5)CC4)cc3)nc(N(C)C)nc2c1`, the melting point was 154 °C.
`N#Cc1c(Cl)c(Cl)c(NCCN)c(Cl)c1Cl`: the melting point was 140 to 144 °C.
Turning to `COc1ccc(-c2cc(-c3ccc(-c4c(Cc5ccccc5)sc5ccccc45)c(Br)c3)ccc2OCC(=O)O)cc1OC`, the melting point is 103 to 105 °C.
Under `CC(C)c1nc(CC(=O)O)c(-c2ccco2)o1` stands 108 to 109 °C; under `COC(=O)c1ccc(Cl)cc1NC(=O)CSc1ccc(NC(=O)Cc2ccccc2)cc1`, 144 to 146 °C; under `CCOC(=O)NCCCCc1ccccc1`, 60 to 61 °C.
`COc1ccc(C(=O)c2ccc(O)cc2)c(OC(C)(C)C(=O)OC(C)(C)C)c1` showed a melting point of 172 to 173 °C.
With `CCc1ccccc1-c1nc(-c2cccc(OC)c2)n[nH]1`, the melting point was in the range of 72 to 75 °C.
Under `CC(=O)OCCSCCOc1ccc(CCC(=O)O)cc1` stands 48 to 49 °C; under `CCS(=O)(=O)C(F)(F)C(O)(Cn1cncn1)c1ccc(F)cc1` (configuration not stated), 131 to 132 °C.
As for `CN1CC(OC(c2ccccc2)c2ccccc2)C1`, the melting point lay within 44 to 48 °C.
With `CCN(CC)c1ccc(-c2cnc3[nH]cc(C(=O)C4(C)CCCCC4)c3n2)cc1`, the melting point lay within 211 to 213 °C.
The compound `CCNC(=O)c1c[nH]c2ncc(-c3nn(C)c4cc(Cl)ccc34)nc12` gave a melting point of 373 to 377 °C.
As for `CCN(CC)CCSC1=C(C#N)C(c2ccccc2)(c2cccs2)C(=O)N1` (configuration not stated), the melting point turned out to be 165 °C.
For `Cc1nccn1-c1ccc(COc2cccc(C3(C(N)=O)CCOCC3)c2)cc1`, the melting point lay in the range of 183 to 186 °C.
For the compound `CC12CCC(C1)C1(C)Oc3ccc(C(O)c4ccc5cc(C(=O)O)ccc5c4)cc3C21C` (configuration not stated), the melting point is 146 to 148 °C.
Consider `CCOC(=O)C(=C(c1ccc(F)cc1)c1ccc(F)cc1)n1nnnc1-c1ccccc1`, for which the melting point lay within 149 to 150 °C.
The compound `COc1ccc(-c2ccc(O)cc2C=O)cc1Cl` displayed a melting point of 168 to 170 °C.
In the case of `Cc1ccc(C(=O)NC(C)(C)C)c(Nc2ccc3cn[nH]c3c2)n1`, the melting point lay within 107 to 109 °C.
Consider `O=C1c2cccc(O)c2C(=O)c2ccsc21`, for which the melting point lay within 199 to 200 °C.
`COc1ccccc1-c1cc2cnc(N)nc2nc1NC(=O)NC(C)(C)C` showed a melting point of 300 to 301 °C.
Regarding `Cc1ccc(C2CCN(C(=O)Nc3ccc4cc(CN5CCCC5)cnc4c3)CC2)cc1`, the melting point lay within 244 to 246 °C.
In turn, `CCCCCc1cc(O)c2c(c1)OC(C)(C)[C@@H]1CCC(=O)C[C@H]21` (relative stereo) had a melting point of 120 to 134 °C.
`N#CS/C=C\C(=O)N1CCCCC1` registered a melting point of 88 to 90 °C.
In turn, `COc1ccc(C2CNC(=O)S2)cc1OC` (configuration not stated) yielded a melting point of 167 to 169 °C.
With `CCCCCCCCCCCCCCCCCCOc1cc(SC)cc(N(CC(=O)O)CC(=O)O)c1`, the melting point lay within 129 to 130 °C.
Under `Nc1nc(NC2CC2)c2sc(=O)n(C3OC(CO)C(O)C3O)c2n1` (configuration not stated) stands more than 100 °C.
On to `O=C(c1ccc(F)cc1)C1CCN(CCCn2c(=S)[nH]c3ccccc32)CC1`, for which the melting point stood at 149 °C.
For `Cc1cc(Cl)c2c(C#N)cn(-c3ccc(C(C)C)cc3Br)c2n1`, the melting point was determined as 123 °C.
In turn, `Fc1cccnc1C#CCCc1nc2ccccc2o1` had a melting point of 86 to 88 °C.
The compound `Fc1ccc2c(c1)nc(Cl)c1nncn12` registered a melting point of 305 to 308 °C.
In turn, `CCCCC(c1c[nH]cn1)c1cccc(CO)c1O` (configuration not stated) showed a melting point of 93 °C.
Compound `CS(=O)(=O)O[C@@H]1C[C@@H](C(N)=O)N(C(=O)OCc2ccc([N+](=O)[O-])cc2)C1` displayed a melting point of 150 to 151 °C.
As for `CC1CCN(C(=O)NCCc2ccc(S(=O)(=O)NC(=O)NC3CCCCC3)cc2)C(=O)C1` (configuration not stated), the melting point lay in the range of 176 to 178 °C.
`Cc1c(F)c([N+](=O)[O-])cc2oc(=O)[nH]c12`: the melting point lay in the range of 194 to 196 °C.

Source of the values: a melting point compilation (Tetko et al.; mined from patent text by program, amines drawn as free bases though some values may be those of a salt).
